For this assay, the system named is rats. Put plainly: Behavioural sensitization to amphetamine (motor hyperactivity measured by actimetry). The following applies: amphetamine 0.5 mg/kg IP, ginkgolide A 5 mg/kg per day oral.

As for `C[C@@H]1C(=O)O[C@H]2C[C@@]34[C@H]5C[C@@H](C(C)(C)C)[C@]36[C@@H](OC(=O)[C@@H]6O)O[C@@]4(C(=O)O5)[C@]21O` [ginkgolide A], the “behavioural sensitization to amphetamine” value is recorded as “reduced”.

For the origin of these results see patent US6936285B1, “Use of Ginkgo biloba extracts for preparing a medicine” (Societe de Conseils de Recherches d'Application …, priority 1997, dated 2005).
